# Patent US11053251B2, “GPR35 modulators” (Prometheus Biosciences, Inc., priority 2019, dated 2021)
# Target: Human GPR35 (Homo sapiens, UniProt Q9HC97, S294R)
# Assay: Alternative Beta-Arrestin Assay (JumpIn 294R Tango U2OS cells, LiveBLAzer-FRET B/G)
# Assay type: cell-based
# Conditions: Human GPR35 expressing JumpIn 294R Tango U2OS cells, 5 hours treatment
# Method: Human GPR35 expressing JumpIn (Thermo Fisher) 294R Tango U2OS cells were plated in 384-well format in clear bottom plates at a cell density of 10,000 cells/well and allowed to grow overnight. The next day, cells were treated with serially diluted test compounds for 5 hours. LiveBLAzer-FRET B/G (CCF4-AM) detection reagents were then added and cells were allowed to incubate for 2 hours before reading plates on a BioTek Cytation 5 plate reader. Zaprinast was used as a positive control for dose-response curves. In order to determine EC50 values, data w ere fit to a four-parameter dose-response curves.
# Sequence of Human GPR35 (Q9HC97 whole entry S294R): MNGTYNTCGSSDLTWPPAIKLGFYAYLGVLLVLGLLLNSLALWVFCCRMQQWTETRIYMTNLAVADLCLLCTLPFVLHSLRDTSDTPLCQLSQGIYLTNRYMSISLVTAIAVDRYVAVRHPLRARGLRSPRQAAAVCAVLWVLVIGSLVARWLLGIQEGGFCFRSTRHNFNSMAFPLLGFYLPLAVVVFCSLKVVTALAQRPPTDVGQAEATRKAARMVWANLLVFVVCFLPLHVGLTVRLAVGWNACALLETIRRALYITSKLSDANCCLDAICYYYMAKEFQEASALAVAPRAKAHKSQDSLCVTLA
row,EC50,Compound
1,≤ 10 µM,"CCOc1cc(-c2cc(OCC(=O)O)cc(C(=O)O)c2)ccc1-c1nc2[nH]nnc2c(=O)[nH]1 [Compound 219, 5-(Carboxymethoxy)-3′-ethoxy-4′-(7-oxo-6,7-dihydro-3H-[1,2,3]triazolo[4,5-d]pyrimidin-5-yl)-[1,1′-biphenyl]-3-carboxylic acid]"
2,≤ 10 µM,"CCOc1cc(-c2ccc(OC(C)C)c(CC(C)C(=O)O)c2)ccc1-c1nc2[nH]nnc2c(=O)[nH]1 (single isomer, unassigned) [Compound 314, 3-(3′-ethoxy-4-isopropoxy-4′-(7-oxo-6,7-dihydro-3H-[1,2,3]triazolo[4,5-d]pyrimidin-5-yl)-[1,1′-biphenyl]-3-yl)-2-methylpropanoic acid]"
3,≤ 10 µM,"CCOc1cc(-c2cccc([C@@H]3C[C@H]3C(=O)O)c2)ccc1-c1nc2[nH]nnc2c(=O)[nH]1 (single isomer, unassigned) [Compound 278, trans-2-(3′-ethoxy-4′-(7-oxo-6,7-dihydro-3H-[1,2,3]triazolo[4,5-d]pyrimidin-5-yl)-[1,1′-biphenyl]-3-yl)cyclopropane-1-carboxylic acid]"
4,≤ 10 µM,"O=C(O)c1ccc(-c2ccc(-c3nc4[nH]nnc4c(=O)[nH]3)c(OC3CCCC3)c2)cc1 [Compound 194, 3′-(Cyclopentyloxy)-4′-(7-oxo-6,7-dihydro-3H-[1,2,3]triazolo[4,5-d]pyrimidin-5-yl)-[1,1′-biphenyl]-4-carboxylic acid]"
5,≤ 10 µM,"CCOc1cc(-c2cc(O)cc(O[C@@H](C)C(=O)O)c2)ccc1-c1nc2[nH]nnc2c(=O)[nH]1 (single isomer, unassigned) [Compound 256]"
6,≤ 10 µM,"CCOc1cc(-c2ccc(F)c(O[C@H](C)C(=O)O)c2)ccc1-c1nc2[nH]nnc2c(=O)[nH]1 [Compound 264, (R)-2-((3′-ethoxy-4-fluoro-4′-(7-oxo-6,7-dihydro-3H-[1,2,3]triazolo[4,5-d]pyrimidin-5-yl)-[1,1′-biphenyl]-3-yl)oxy)propanoic acid]"
7,≤ 10 µM,"CCOc1cc(-c2cc(O)cc(O[C@@H](CC)C(=O)O)c2)ccc1-c1nc2[nH]nnc2c(=O)[nH]1 (single isomer, unassigned) [Compound 259]"
8,≤ 10 µM,"CCOc1cc(-c2cccc(NC(C)(C)C(=O)O)c2)ccc1-c1nc2[nH]nnc2c(=O)[nH]1 [Compound 224, 2-((3′-Ethoxy-4′-(7-oxo-6,7-dihydro-3H-[1,2,3]triazolo[4,5-d]pyrimidin-5-yl)-[1,1′-biphenyl]-3-yl)amino)-2-methylpropanoic acid]"
9,≤ 10 µM,"CCOc1cc(-c2ccc(C)c(OC(CC)C(=O)O)c2)ccc1-c1nc2[nH]nnc2c(=O)[nH]1 (stereo not drawn) [Compound 272, 2-((3′-ethoxy-4-methyl-4′-(7-oxo-6,7-dihydro-3H-[1,2,3]triazolo[4,5-d]pyrimidin-5-yl)-[1,1′-biphenyl]-3-yl)oxy)butanoic acid]"
10,≤ 10 µM,"CCOc1cc(-c2cc(O)cc(OC(CC)C(=O)O)c2)ccc1-c1nc2[nH]nnc2c(=O)[nH]1 (stereo not drawn) [Compound 257, 2-((3′-ethoxy-5-hydroxy-4′-(7-oxo-6,7-dihydro-3H-[1,2,3]triazolo[4,5-d]pyrimidin-5-yl)-[1,1′-biphenyl]-3-yl)oxy)butanoic acid]"
11,≤ 10 µM,"CCOc1cc(-c2ccc(NCC(=O)O)cc2)ccc1-c1nc2[nH]nnc2c(=O)[nH]1 [Compound 215, (3′-Ethoxy-4′-(7-oxo-6,7-dihydro-3H-[1,2,3]triazolo[4,5-d]pyrimidin-5-yl)-[1,1′-biphenyl]-4-yl)glycine]"
12,≤ 10 µM,"CCOc1cc(-c2ccc(OC)c(CC(C)C(=O)O)c2)ccc1-c1nc2[nH]nnc2c(=O)[nH]1 (stereo not drawn) [Compound 316, 3-(3′-ethoxy-4-methoxy-4′-(7-oxo-6,7-dihydro-3H-[1,2,3]triazolo[4,5-d]pyrimidin-5-yl)-[1,1′-biphenyl]-3-yl)-2-methylpropanoic acid]"
13,≤ 10 µM,"CCOc1cc(-c2cc(C(=O)O)cs2)ccc1-c1nc2[nH]nnc2c(=O)[nH]1 [Compound 190, 5-(3-ethoxy-4-(7-oxo-6,7-dihydro-3H-[1,2,3]triazolo[4,5-d]pyrimidin-5-yl)phenyl)thiophene-3-carboxylic acid]"
14,≤ 10 µM,"CCOc1cc(-c2cccc(C[C@@H](O)C(=O)O)c2)ccc1-c1nc2[nH]nnc2c(=O)[nH]1 [Compound 284, (R)-3-(3′-ethoxy-4′-(7-oxo-6,7-dihydro-3H-[1,2,3]triazolo[4,5-d]pyrimidin-5-yl)-[1,1′-biphenyl]-3-yl)-2-hydroxypropanoic acid]"
15,≤ 10 µM,"CCOc1cc(-c2cccc(OC(CC)C(=O)O)c2)ccc1-c1nc2[nH]nnc2c(=O)[nH]1 (stereo not drawn) [Compound 247, 2-((3′-ethoxy-4′-(7-oxo-6,7-dihydro-3H-[1,2,3]triazolo[4,5-d]pyrimidin-5-yl)-[1,1′-biphenyl]-3-yl)oxy)butanoic acid]"
16,≤ 10 µM,"O=C(O)c1cc(O)cc(-c2ccc(-c3nc4[nH]nnc4c(=O)[nH]3)c(OC3CCCC3)c2)c1 [Compound 199, 3′-(Cyclopentyloxy)-5-hydroxy-4′-(7-oxo-6,7-dihydro-3H-[1,2,3]triazolo[4,5-d]pyrimidin-5-yl)-[1,1′-biphenyl]-3-carboxylic acid]"
17,≤ 10 µM,"CCOc1cc(-c2ccc(OC(C)C)c(CC(C)C(=O)O)c2)ccc1-c1nc2[nH]nnc2c(=O)[nH]1 (single isomer, unassigned) [Compound 313, 3-(3′-ethoxy-4-isopropoxy-4′-(7-oxo-6,7-dihydro-3H-[1,2,3]triazolo[4,5-d]pyrimidin-5-yl)-[1,1′-biphenyl]-3-yl)-2-methylpropanoic acid]"
18,≤ 10 µM,"CCOc1cc(-c2cccc(CC(C)C(=O)O)c2)ccc1-c1nc2[nH]nnc2c(=O)[nH]1 (single isomer, unassigned) [Compound 312, 3-(3′-ethoxy-4′-(7-oxo-6,7-dihydro-3H-[1,2,3]triazolo[4,5-d]pyrimidin-5-yl)-[1,1′-biphenyl]-3-yl)-2-methylpropanoic acid]"
19,≤ 10 µM,"COc1cc(-c2nc3[nH]nnc3c(=O)[nH]2)cc(OC)c1-c1ccc(C(=O)O)cc1 [Compound 196, 2′,6′-Dimethoxy-4′-(7-oxo-6,7-dihydro-3H-[1,2,3]triazolo[4,5-d]pyrimidin-5-yl)-[1,1′-biphenyl]-4-carboxylic acid]"
20,≤ 10 µM,"CCOC(=O)c1ccc(-c2ccc(-c3nc4[nH]nnc4c(=O)[nH]3)c(OCC)c2)cc1 [Compound 191, ethyl 3′-ethoxy-4′-(7-oxo-6,7-dihydro-3H-[1,2,3]triazolo[4,5-d]pyrimidin-5-yl)-[1,1′-biphenyl]-4-carboxylate]"
21,≤ 10 µM,"CCOC(=O)Cc1cccc(-c2ccc(-c3nc4[nH]nnc4c(=O)[nH]3)c(OCC)c2)c1 [Compound 294, ethyl 2-(3′-ethoxy-4′-(7-oxo-6,7-dihydro-3H-[1,2,3]triazolo[4,5-d]pyrimidin-5-yl)-[1,1′-biphenyl]-3-yl)acetate]"
22,≤ 10 µM,"CCOc1cc(-c2cccc(CC(C)(C)C(=O)O)c2)ccc1-c1nc2[nH]nnc2c(=O)[nH]1 [Compound 243, 3-(3′-ethoxy-4′-(7-oxo-6,7-dihydro-3H-[1,2,3]triazolo[4,5-d]pyrimidin-5-yl)-[1,1′-biphenyl]-3-yl)-2,2-dimethylpropanoic acid]"
23,≤ 10 µM,"CCOc1cc(-c2cccc(O[C@@H](C)C(=O)O)c2)ccc1-c1nc2[nH]nnc2c(=O)[nH]1 (single isomer, unassigned) [Compound 252]"
24,≤ 10 µM,"CCOc1cc(-c2cc(C)cc(O[C@H](C)C(=O)O)c2)ccc1-c1nc2[nH]nnc2c(=O)[nH]1 [Compound 266, (R)-2-((3′-ethoxy-5-methyl-4′-(7-oxo-6,7-dihydro-3H-[1,2,3]triazolo[4,5-d]pyrimidin-5-yl)-[1,1′-biphenyl]-3-yl)oxy)propanoic acid]"
25,10 to 50 µM,"CN(C)CCCOc1cc(-c2ccc(C(=O)O)cc2)ccc1-c1nc2[nH]nnc2c(=O)[nH]1 [Compound 229, 3′-(3-(Dimethylamino)propoxy)-4′-(7-oxo-6,7-dihydro-3H-[1,2,3]triazolo[4,5-d]pyrimidin-5-yl)-[1,1′-biphenyl]-4-carboxylic acid]"
26,≤ 10 µM,"CCOc1cc(-c2cccc(OC(C)(C)C(=O)O)c2)ccc1-c1nc2[nH]nnc2c(=O)[nH]1 [Compound 213, 2-((3′-Ethoxy-4′-(7-oxo-6,7-dihydro-3H-[1,2,3]triazolo[4,5-d]pyrimidin-5-yl)-[1,1′-biphenyl]-3-yl)oxy)-2-methylpropanoic acid]"
27,≤ 10 µM,"CCOc1cc(-c2ccc(OCC(=O)O)cc2)ccc1-c1nc2[nH]nnc2c(=O)[nH]1 [Compound 211, 2-((3′-Ethoxy-4′-(7-oxo-6,7-dihydro-3H-[1,2,3]triazolo[4,5-d]pyrimidin-5-yl)-[1,1′-biphenyl]-4-yl)oxy)acetic acid]"
28,≤ 10 µM,"CCOc1cc(-c2ccc(OCCN(C)C)c(/C=C/C(=O)O)c2)ccc1-c1nc2[nH]nnc2c(=O)[nH]1 [Compound 319, (E)-3-(4-(2-(dimethylamino)ethoxy)-3′-ethoxy-4′-(7-oxo-6,7-dihydro-3H-[1,2,3]triazolo[4,5-d]pyrimidin-5-yl)-[1,1′-biphenyl]-3-yl)acrylic acid]"

# Same assay, conditions: at 5.6 μM; Table 2
row,% inhibition at 5.6 μM,Compound
1,30% inhibition at,"CCOC(=O)C(C)(C)Cc1cccc(-c2ccc(-c3nc4[nH]nnc4c(=O)[nH]3)c(OCC)c2)c1 [Compound 242, ethyl 3-(3′-ethoxy-4′-(7-oxo-6,7-dihydro-3H-[1,2,3]triazolo[4,5-d]pyrimidin-5-yl)-[1,1′-biphenyl]-3-yl)-2,2-dimethylpropanoate]"

# Same assay, conditions: at 50 μM; Table 2
row,Compound,% inhibition at 50 μM
1,"O=C(O)c1ccc(-c2ccc(-c3nc4[nH]nnc4c(=O)[nH]3)c(OCCN3CCCC3)c2)cc1 [Compound 227, 4′-(7-Oxo-6,7-dihydro-3H-[1,2,3]triazolo[4,5-d]pyrimidin-5-yl)-3′-(2-(pyrrolidin-1-yl)ethoxy)-[1,1′-biphenyl]-4-carboxylic acid]",66% inhibition at
